Tested on: MCF-7DOX (doxorubicin-resistant) cells
Test: Clonogenic assay, MCF-7DOX cells
Format: cell-based, human
Description: The breast cancer cell line MCF-7 (lot HTB-22) was obtained from the American […] (ATCC) and maintained in Dulbecco's H21 medium (MEM) supplemented with 10% Fetal Bovine Serum (FBS) (HyClone, Logan, Utah) in a humidified atmosphere containing 5% CO2 at 37° C. To establish drug resistant cell lines, MCF-7 cells were grown in the presence of either paclitaxel or doxorubicin, beginning at a concentration 1000-fold below that required to kill 50% of the cells (the IC50). The drug concentration was increased 3-fold every two weeks (two passages), with an aliquot of the cells removed for storage in liquid nitrogen before each increase in concentration. Dose escalation continued until all cells died, after which the cells able to tolerate the highest concentration of drug were thawed for subsequent study. In this way, paclitaxel-resistant (MCF-7TAX) and doxorubicin-resistant (MCF-7DOX) cell lines were established. The IC50 for each drug was determined using a clonogenic assay as outlined below. The drug resistant cells were kept in culture in the presence of the maximally tolerated drug dose. Before each experiment, the cell lines were grown for two days in the absence of drug after which fresh medium containing either calphostin C (Sigma Laboratories, Oakville, ON), doxorubicin (Adriamycin PFS®, USP, Mississauga, ON) or paclitaxel (Taxol, Bristol-Myers Squibb, Montreal, QC) was added at the concentrations indicated.
The sensitivity of MCF-7, MCF-7TAX and MCF-7DOX cells to calphostin C, paclitaxel or doxorubicin was determined using a clonogenic assay. Briefly, 2.5×10^5 cells were seeded into 25 cm^2 tissue culture flasks in Dulbecco's H21 medium supplemented with 10% FBS. The cells were allowed to grow overnight, after which the medium was removed and replaced with medium containing varying concentrations of paclitaxel, doxorubicin, or calphostin C (after 2 hours of light exposure to activate the molecule). After 24 hours, the medium (including any floating cells) was transferred to 14 ml screw-capped tubes and centrifuged at 1000 rpm for 10 min. The adherent cells were then released from their flasks by trypsin treatment and suspended in 10 ml of H21 medium. The cell suspension was transferred to the previous tube and all cells harvested by centrifugation. The cell pellet was washed one more time with drug-free medium and resuspended in 300 μl of normal growth medium containing FBS. The cells were then added to 2.7 ml of a methylcellulose solution. The methylcellulose medium was prepared by combining 70 ml of a 2.6% (w/v) methylcellulose solution [Shin-Etsu Chemical Co., Tokyo, Japan] in Iscove's medium (Princess Margaret Hospital, Toronto, ON) with 30 ml of FBS. Three ml syringes equipped with a 16-gauge needle were used for transferring the viscous medium. The mixture was vigorously vortexed for 10 s to ensure an even distribution of cells within the viscous medium. The vortexed samples were then allowed to sit for 30 min to remove air bubbles. A 1.2 ml aliquot of the cell suspension was then transferred to a 6-well plate and the cells allowed to grow until colonies of >50 cells were visible by light microscopy for the various cell lines in the absence of drug. The colonies present in 5 randomly selected fields were then counted by visual inspection.
Calphostin C (Sigma Laboratories, Oakville, ON) was prepared as a 100 μM stock solution in dimethylsulfoxide (Sigma Laboratories, Oakville, ON) and stored at −70° C. in 100 μl aliquots. […]

COc1c(C[C@@H](C)OC(=O)Oc2ccc(O)cc2)c2c3c(C[C@@H](C)OC(=O)c4ccccc4)c(OC)c(=O)c4c(O)cc(OC)c(c5c(OC)cc(O)c(c1=O)c52)c43 [calphostin C]
IC50 (MCF-7DOX cells, 24 h drug, calphostin C light-activated 2 h): 64.2 nM
fold resistance / lower sensitivity compared to MCF-7 cells (MCF-7DOX vs MCF-7): approximately 5 fold

— US7371780B2, “Use of calphostin C to treat drug-resistant tumor cells” (priority 2003, dated 2008)
